The values below are quoted from earlier work in patent US5688524A, “Transdermal formulations for administering prazosin” (Cygnus, Inc., priority 1993, dated 1997).

In series [1] the test system is benign prostatic hypertrophy (BPH). As to conditions: in vivo.
The conditions of series [2]: oral; incomplete absorption, GI degradation, first pass liver metabolism.

As for `COc1cc2nc(N3CCN(C(=O)c4ccco4)CC3)nc(N)c2cc1OC` [prazosin], in series [1], the “effect in treating benign prostatic hypertrophy (BPH)” value is “effective in treating benign prostatic hypertrophy (BPH)”. In addition, the bioavailability result in series [2] is recorded as “incomplete bioavailability”.
